Drawing on US8119624B2, “Fused phenyl amido heterocyclic compounds” (Pfizer Inc., priority 2006, dated 2012), this text covers activation, EC50 and Emax for 27 compounds.

By EC50 is commonly meant the concentration at which the effect is half-maximal.

The assay has as its target T1, Full-length glucokinase (beta cell isoform) (Homo sapiens, UniProt P35557).
T1 construct: Full-length glucokinase (beta cell isoform) was His-tagged at N-terminus; His tag (N); made in house
T1 sequence (P35557 1-465): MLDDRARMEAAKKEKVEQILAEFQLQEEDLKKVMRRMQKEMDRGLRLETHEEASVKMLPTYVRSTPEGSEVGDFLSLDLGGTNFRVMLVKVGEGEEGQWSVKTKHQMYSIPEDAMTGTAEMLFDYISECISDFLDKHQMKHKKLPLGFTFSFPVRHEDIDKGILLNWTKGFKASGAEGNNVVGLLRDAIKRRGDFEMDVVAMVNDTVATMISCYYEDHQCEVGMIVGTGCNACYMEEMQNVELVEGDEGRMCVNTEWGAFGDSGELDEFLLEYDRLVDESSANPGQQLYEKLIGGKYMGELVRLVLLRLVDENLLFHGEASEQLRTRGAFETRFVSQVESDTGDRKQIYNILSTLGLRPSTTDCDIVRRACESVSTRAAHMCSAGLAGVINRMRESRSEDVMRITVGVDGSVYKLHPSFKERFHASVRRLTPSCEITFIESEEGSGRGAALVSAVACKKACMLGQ
In words: Glucokinase biochemical assay (PK/LDH-coupled, NADH depletion at 340 nm): % activation, EC50, % max activation. Particulars: 5 mM glucose; for activation at 10 µM: 10 uM compound, % Activation=(Va/Vo−1)×100, read-out: % Activation at 10 uM; for EC50: GK activation, read-out: EC50; for Emax: fitted maximum activation, read-out: % Max Activation. In short, it runs like this:
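N-terminally His-tagged full-length human beta-cell glucokinase, room temperature, 5 mM glucose, 1 mM ATP, PK/LDH-coupled with 0.7 mM NADH, 1% DMSO final. Initial velocity from the 200–900 s slope of A340 decline. % activation = (Va/Vo−1)×100, measured across compound concentrations.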

For the compound `Cc1ccc(NC(=O)c2cc(Oc3ccc(S(C)(=O)=O)cc3)c3cc(C(F)F)oc3c2)nc1` [Example 321, 2-(Difluoromethyl)-N-(5-methylpyridin-2-yl)-4-[4-(methylsulfonyl)-phenoxy]-1-benzofuran-6-carboxamide], the activation at 10 µM is 100%, the half-maximal effective concentration (EC50) worked out at 4.3 µM and the Emax was determined as 132%.

Consider `Cn1ccc(NC(=O)c2cc(Oc3ccc(S(C)(=O)=O)cc3)c3cc(C(F)F)oc3c2)n1` [Example 322, 2-(Difluoromethyl)-N-(1-methyl-1H-pyrazol-3-yl)-4-[4-(methylsulfonyl)-phenoxy]-1-benzofuran-6-carboxamide], for which the activation at 10 µM is 161%, the EC50 was found to be 6.3 µM and the Emax stood at 235%.

With `Cc1ccc(NC(=O)c2cc(Oc3ccc(C(F)F)cc3)c3cc(C(=O)N(C)C)oc3c2)nc1` [Example 323, 4-[4-(Difluoromethyl)phenoxy]-N^2,N^2-dimethyl-N^6-(5-methylpyridin-2-yl)-1-benzofuran-2,6-dicarboxamide], the activation at 10 µM was found to be 78%, the 50% effective concentration (EC50) is 3.7 µM and the Emax worked out at 83%.

For `Cc1ccc(NC(=O)c2cc(OC3CN(C(=O)N(C)C)C3)c3cc(C)oc3c2)nc1` [Example 324, N,N-Dimethyl-3-[(2-methyl-6-{[(5-methylpyridin-2-yl)amino]-carbonyl}-1-benzofuran-4-yl)oxy]azetidine-1-carboxamide], the activation at 10 µM was 18.2%.

In the case of `Cc1cc2c(OC3CN(S(C)(=O)=O)C3)cc(C(=O)Nc3cnn(C)n3)cc2o1` [Example 325, 2-Methyl-4-{[1-(methylsulfonyl)azetidin-3-yl]oxy}-N-(2-methyl-2H-1,2,3-triazol-4-yl)-1-benzofuran-6-carboxamide], the activation at 10 µM worked out at 137% and the EC50 was over 10 µM.

Regarding `Cc1ccc(NC(=O)c2cc(OC3CN(S(C)(=O)=O)C3)c3cc(C)oc3c2)nc1` [Example 326, 2-Methyl-N-(5-methylpyridin-2-yl)-4-{[1-(methylsulfonyl)-azetidin-3-yl]oxy}-1-benzofuran-6-carboxamide], the activation at 10 µM was determined as 76.9%, the EC50 was 2.1 µM and the Emax amounted to 90%.

In the case of `Cc1cc2c(OC3CN(S(C)(=O)=O)C3)cc(C(=O)Nc3ccn(C)n3)cc2o1` [Example 327, 2-Methyl-N-(1-methyl-1H-pyrazol-3-yl)-4-{[1-(methylsulfonyl)-azetidin-3-yl]oxy}-1-benzofuran-6-carboxamide], the activation at 10 µM was determined as 108% and the concentration for a half-maximal effect (EC50) was over 10 µM.

Consider `Cc1cc2cc(C(=O)Nc3ccn(C)n3)cc(O[C@@H](C)Cc3ccccc3)c2s1` [Example 328, 2-Methyl-7-(1-methyl-2-phenylethoxy)-N-(1-methyl-1H-pyrazol-3-yl)-1-benzothiophene-5-carboxamide], for which the activation at 10 µM worked out at 41.3% and the EC50 is over 10 µM.

As to `Cc1ccc(NC(=O)c2cc(Oc3ccc(S(C)(=O)=O)cc3)c3sc(C)cc3c2)nc1` [Example 329, 2-Methyl-N-(5-methylpyridin-2-yl)-7-[4-(methylsulfonyl)-phenoxy]-1-benzothiophene-5-carboxamide], the activation at 10 µM is 86.8%, the half-maximal effective concentration (EC50) was found to be 1.6 µM and the Emax was 113%.

Turning to `Cc1cc2cc(C(=O)Nc3ccn(C)n3)cc(Oc3ccc(S(C)(=O)=O)cc3)c2s1` [Example 330, 2-Methyl-N-(1-methyl-1H-pyrazol-3-yl)-7-[4-(methylsulfonyl)-phenoxy]-1-benzothiophene-5-carboxamide], the activation at 10 µM is 125%, the EC50 worked out at 1.7 µM and the Emax is 162%.

Take `Cc1cc2cc(C(=O)Nc3ccn(C)n3)cc(Oc3ccc(C(=O)N(C)C)cc3)c2s1` [Example 331, 7-{4-[(Dimethylamino)carbonyl]phenoxy}-2-methyl-N-(1-methyl-1H-pyrazol-3-yl)-1-benzothiophene-5-carboxamide]: the activation at 10 µM worked out at 47.4%, the concentration giving a half-maximal response (EC50) stood at 0.32 µM and the Emax amounted to 56%.

Consider `Cn1ccc(NC(=O)c2cc(Oc3ccc(S(C)(=O)=O)cc3)c3occc3c2)n1` [Example 332, N-(1-Methyl-1H-pyrazol-3-yl)-7-[4-(methylsulfonyl)phenoxy]-1-benzofuran-5-carboxamide], for which the activation at 10 µM was 57.5% and the EC50 is over 10 µM.

Regarding `Cc1ccc(NC(=O)c2cc(Oc3ccc(S(C)(=O)=O)cc3)c3occc3c2)nc1` [Example 333, N-(5-methylpyridin-2-yl)-7-[4-(methylsulfonyl)phenoxy]-1-benzofuran-5-carboxamide], the activation at 10 µM amounted to 52.8%, the 50% effective concentration (EC50) is 8.6 µM and the Emax is 106%.

For `CN(C)C(=O)c1ccc(Oc2cc(C(=O)Nc3ccn(C)n3)cc3ccoc23)cc1` [Example 334, 7-{4-[(Dimethylamino)carbonyl]phenoxy}-N-(1-methyl-1H-pyrazol-3-yl)-1-benzofuran-5-carboxamide], the activation at 10 µM worked out at 35%.

Consider `Cc1ccc(NC(=O)c2cc(Oc3ccc(C(=O)N(C)C)cc3)c3occc3c2)nc1` [Example 335, 7-{4-[(Dimethylamino)carbonyl]phenoxy}-N-(5-methylpyridin-2-yl)-1-benzofuran-5-carboxamide], for which the activation at 10 µM is 26%.

Regarding `C[C@@H](Cc1ccccc1)Oc1cc(C(=O)Nc2ccn(C)n2)cc2ccoc12` [Example 336, 7-[(1S)-1-Methyl-2-phenylethoxy]-N-(1-methyl-1H-pyrazol-3-yl)-1-benzofuran-5-carboxamide], the activation at 10 µM amounted to 8.4%.

Turning to `Cc1ccc(NC(=O)c2cc(Oc3ccc(S(C)(=O)=O)cc3)c3oc(C)cc3c2)nc1` [Example 337, 2-Methyl-N-(5-methylpyridin-2-yl)-7-[4-(methylsulfonyl)-phenoxy]-1-benzofuran-5-carboxamide], the activation at 10 µM was 42.6%, the EC50 was 3 µM and the Emax stood at 89%.

On to `Cc1cc2cc(C(=O)Nc3ccn(C)n3)cc(Oc3ccc(S(C)(=O)=O)cc3)c2o1` [Example 338, 2-Methyl-N-(1-methyl-1H-pyrazol-3-yl)-7-[4-(methylsulfonyl)-phenoxy]-1-benzofuran-5-carboxamide], for which the activation at 10 µM was found to be 84.5%, the half-maximal effective concentration (EC50) came out at 4.3 µM and the Emax is 147%.

Turning to `Cc1ccc(NC(=O)c2cc(Oc3ccc(C(=O)N(C)C)cc3)c3oc(C)cc3c2)nc1` [Example 339, 7-{4-[(Dimethylamino)carbonyl]phenoxy}-2-methyl-N-(5-methylpyridin-2-yl)-1-benzofuran-5-carboxamide], the activation at 10 µM was -0.7%.

Take `Cc1cc2cc(C(=O)Nc3ccn(C)n3)cc(O[C@@H](C)Cc3ccccc3)c2o1` [Example 340, 2-Methyl-7-[(1S)-1-methyl-2-phenylethoxy]-N-(1-methyl-1H-pyrazol-3-yl)-1-benzofuran-5-carboxamide]: the activation at 10 µM is 41.2% and the EC50 was over 10 µM.

In the case of `CN(C)C(=O)c1ccc(Oc2cc(C(=O)Nc3ccn(C)n3)cc3occc23)cc1F` [Example 341, 4-(4-(Dimethylcarbamoyl)-3-fluorophenoxy)-N-(1-methyl-1H-pyrazol-3-yl)benzofuran-6-carboxamide], the activation at 10 µM is 59%, the EC50 amounted to 1.7 µM and the Emax is 69%.

Take `Cc1ccc(NC(=O)c2cc(Oc3ccc(C(=O)N(C)C)c(F)c3)c3ccoc3c2)nc1` [Example 342, 4-(4-(Dimethylcarbamoyl)-3-fluorophenoxy)-N-(5-methylpyridin-2-yl)benzofuran-6-carboxamide]: the activation at 10 µM was found to be 15%.

Consider `Cn1ccc(NC(=O)c2cc(Oc3ccc(S(C)(=O)=O)cc3)c3ccoc3c2)n1` [Example 343], for which the activation at 10 µM came out at 82.5% and the EC50 is over 10 µM.

Take `Cc1ccc(NC(=O)c2cc(OC(C)C)cc3occc23)nc1` [Example 344, 6-Isopropoxy-N-(5-methylpyridin-2-yl)benzofuran-4-carboxamide]: the activation at 10 µM was determined as 89.5%, the EC50 is 1.4 µM and the Emax was 106%.

For `Cc1ccc(NC(=O)c2cc(OC(C)C)cc3oc(Br)cc23)nc1` [Example 345, 2-Bromo-6-isopropoxy-N-(5-methylpyridin-2-yl)benzofuran-4-carboxamide], the activation at 10 µM was found to be 75.6%, the EC50 was 4 µM and the Emax was found to be 116%.

For `C=C(C)c1cc2c(C(=O)Nc3ccc(C)cn3)cc(OC(C)C)cc2o1` [Example 346, 6-Isopropoxy-N-(5-methylpyridin-2-yl)-2-(prop-1-en-2-yl)benzofuran-4-carboxamide], the activation at 10 µM amounted to 69.2%, the concentration for a half-maximal effect (EC50) was 1.5 µM and the Emax was determined as 89%.

`Cc1ccc(NC(=O)c2cc(OC(C)C)cc3oc(-c4ccccc4)cc23)nc1` [Example 347, 6-Isopropoxy-N-(5-methylpyridin-2-yl)-2-phenylbenzofuran-4-carboxamide]: the activation at 10 µM was found to be 113%, the EC50 is 0.16 µM and the Emax amounted to 158%.
